{
  "source": "patent US20170128418A1",
  "about": "“COMPOSITIONS AND METHODS FOR IMPROVING LACTATION” (UNIVERSITY OF CINCINNATI, priority 2012, published 2017)",
  "key": {"[1]": {"tested_on": "PTHrP", "assay": "5-HTP injection rescue of TPH1 knockout mice, plasma PTHrP (IRMA)", "assay_type": "in vivo", "details": "TPH1 knockout mice injected with 5-HTP; P<0.0001, R=0.92", "description": "TPH1^−/−, and corresponding wild type control animals (C57BL/6J genetic background) were bred and maintained in our animal facility. All experiments were performed under protocols approved by the University of Cincinnati Institutional Animal Care and Use Committee. Plasma was collected for PTHrP assay from non-lactating wild type mice and both wild type and TPH1^−/− animals on day 10 of lactation. Mammary gland tissues (#4 glands counted from most rostral) were collected for immunostaining from TPH1^−/− animals and wild type controls on day 10 of lactation, and were fixed in 4% paraformaldehyde, before being paraffin embedded and sectioned.\nPTHrP IRMA. Plasma PTHrP levels were measured using a two-site immunoradiometric assay specific for PTHrP 1-86 (Becton Dickinson), following the manufacturer's instructions. The detection limit (blank serum+1 standard deviation) was 0.3 pM under the conditions of this assay.\nThe conversion of L-tryptophan to 5-hydroxytryptophan (5-HTP) is the rate-limiting step in 5-HT synthesis; therefore we injected 5-HTP to bypass the enzyme deficiency in TPH1 mice, and measured PTHrP plasma levels."}, "[2]": {"assay": "Circulating 5-HT and PTHrP in rats fed a 5-HTP supplemented diet", "assay_type": "in vivo", "details": "rats fed 0.2% 5-HTP diet from d13 pregnancy through d9 lactation vs control breeder diet", "description": "FIG. 1 depicts the circulating levels of (A) serum 5-HT and (B) plasma PTHrP in rats fed 0.2% 5-HTP from d13 pregnancy through d9 lactation compared to rats fed a control breeder diet.\nBased on the foregoing results, studies were conducted to establish, in practice, that feeding a diet supplemented with 5-HTP would elevate circulating levels of serotonin (5-HT) and PTHrP. Rats were fed a diet supplemented with 0.2% 5-HTP, and circulating levels of 5-HT (serum) and PTHrP (plasma) in the rats fed 0.2% 5-HTP from d13 pregnancy through d9 lactation were compared to rats fed a control breeder diet."}, "[3]": {"assay": "Serum and milk calcium in rats fed a 5-HTP supplemented diet", "assay_type": "in vivo", "details": "rats fed 0.2% 5-HTP diet from d13 pregnancy, vs control diet", "description": "FIG. 2 depicts the serum and milk calcium concentrations in rats fed 0.2% 5-HTP (n=15) from d13 pregnancy-d9 lactation compared to rats fed a control (n=15) breeder diet at (A) day 1 of lactation and (B) day 9 of lactation.\nBased on the foregoing results, studies were conducted to establish, in practice, that feeding a diet supplemented with 5-HTP would elevate circulating calcium levels in lactating animals. Serum and milk calcium concentrations were measured in rats fed a diet supplemented with 0.2% 5-HTP (n=15) from d13 pregnancy-d9 lactation, compared to rats fed a control (n=15) diet. Serum calcium concentrations were elevated by 5-HTP supplementation on dl of lactation, and subsequently, milk calcium levels were elevated by 5-HTP on d9 of lactation (FIG. 2)."}, "[4]": {"tested_on": "HC11 cells", "assay": "PTHrP gene expression in lactogen-treated HC11 cells (real-time RT-PCR)", "assay_type": "cell-based, mouse", "details": "lactogen-treated rodent HC11 cells", "description": "(§1) Cell culture. Primary bovine mammary epithelial cells grown in collagen gels were induced to differentiate by release of the gel from the substratum, and treating with lactogenic hormones as described (15,31). The mouse mammary epithelial cells (HC11) were maintained under growth medium conditions, and lactogen-induced by treatment of 3 day confluent cultures with prolactin, insulin, and cortisol as previously described (17).\n(§2) Quantitative real-time RT-PCR amplification. Total RNA was isolated using TRIreagent® (Molecular Research) following manufacturer's procedures. RNA quality was determined through spectrophometric methods on the Nanodrop 2000 (Thermo Scientific). A total of […] was reverse transcribed using the QuantiTect reverse transcription kit (Qiagen). Quantitative real-time RT-PCR was performed using the Applied Biosystems Step One Plus system (Applied Biosystems) using fast SYBR green master mix (Applied Biosystems). The following conditions were utilized: 95′C for 20 sec. followed by 40 cycles of 95′C for 3 sec., 60′C for 30 sec.\nTo determine whether PTHrP expression in mammary epithelial cells was directly responsive to 5-HT two cell models of lactogenic mammary epithelium were studied: lactogen-treated rodent HC11 cells, and primary bovine mammary epithelial cells embedded in floating collagen gels. […]"}, "[5]": {"tested_on": "primary bovine mammary epithelial cells", "assay": "PTHrP gene expression in primary bovine mammary epithelial cells in floating collagen gels (real-time RT-PCR)", "assay_type": "cell-based", "details": "primary bovine mammary epithelial cells embedded in floating collagen gels", "description": "as §1\nPrimary bovine mammary epithelial cells (pBMEC) were obtained as a generous gift from Dr. Robert Collier at the University of Arizona and cultured as previously described (15, 31).\nas §2, with “30 sec. […]” for “30 sec.”"}, "[6]": {"tested_on": "vascular smooth muscle cells", "details": "previous study; cited from earlier work"}, "[7]": {"tested_on": "mammary cells", "assay": "PTHrP induction by prolactin in mammary epithelium cell cultures", "assay_type": "cell-based", "details": "conventional cell cultures of mammary epithelium", "description": "PTHrP is undetectable in the circulation except during lactation, in advanced metastatic disease, or in patients with hyperprolactinemia."}},
  "data": [
    {"molecule": "N[C@@H](Cc1c[nH]c2ccc(O)cc12)C(=O)O", "note": "[5-HTP, 5-Hydroxytryptophan]", "values": [
      {"measurement": "plasma PTHrP", "setting": "[1]", "result": "time-dependent increase"},
      {"measurement": "circulating 5-HT (serum)", "setting": "[2]", "result": "elevation"},
      {"measurement": "circulating PTHrP (plasma)", "setting": "[2]", "result": "elevation"},
      {"measurement": "milk calcium levels", "setting": "[3]; d9 of lactation", "result": "elevated"},
      {"measurement": "serum calcium concentrations", "setting": "[3]; dl of lactation", "result": "elevated"}
    ]},
    {"molecule": "NCCc1c[nH]c2ccc(O)cc12", "note": "[5-HT, serotonin]", "values": [
      {"measurement": "PTHrP gene expression induction", "setting": "[4]", "result": 8, "unit": "fold"},
      {"measurement": "PTHrP gene expression induction", "setting": "[5]", "result": 20, "unit": "fold"},
      {"measurement": "PTHrP expression", "setting": "[6]", "result": "induced"}
    ]},
    {"molecule": "prolactin (protein, UniProt P01236 29-227, looked up, prolactin hormone) Prolactin: LPICPGGAARCQVTLRDLFDRAVVLSHYIHNLSSEMFSEFDKRYTHGRGFITKAINSCHTSSLATPEDKEQAQQMNQKDFLSLIVSILRSWNEPLYHLVTEVRGMQEAPEAILSKAVEIEEQTKRLLEGMELIVSQVHPETKENEIYPVWSGLPSLQMADEESRLSAYYNLLHCLRRDSHKIDNYLKLLKCRIIHNNNC", "values": [
      {"measurement": "PTHrP induction", "setting": "[7]", "result": "did not induce"}
    ]}
  ]
}
